pIC50: −log10 of the molar value. Entries after “also recorded” stand apart in the source; their conditions may differ.
Legend:
Type in all cases: cell-based
MCF-7 cells [1] = assay: CCK-8 antiproliferative activity on MCF-7 cells
Method: (§1) DMEM high glucose medium and fetal calf serum were obtained from Gibco (New York, NY, USA), and cell counting Kit-8 solution was purchased from Meilunbio (Dalian, China). Paraformaldehyde and Crystal Violet were purchased from Biosharp (Hefei, China). The MCF-7 and L-02 cell lines were purchased from the Shanghai Institute of Biochemistry (Shanghai, China) All the target compounds and 5-fluorouracil (5-Fu) were dissolved with DMSO at a concentration of 20 mM. Cell culture medium was a mixture of DMEM medium, 10% fetal bovine serum, and 1% penicillin–streptomycin solution stored at […]. The cells were grown at 37 °C under 5% CO2.
(§2) Cells were seeded into 96 well plates with 4000 cells/well using DMEM solution and incubated in a humid atmosphere containing 5% CO2 at 37 °C for 24 h. Compounds with different concentrations (200 μM, 100 μM, 50 μM, 25 μM, 12.5 μM, 6.25 μM, 3.125 μM, 1.5625 μM) were added to the culture medium for 24 h. After that, CCK-8 reagent (10 μL) was added under dark conditions and incubated the plate in a CO2 incubator at 37 °C for 2 h. After incubation, the absorbance was measured using an enzyme-linked immunosorbent assay at a wavelength of 450 nm. Cell survival rate was calculated as a percentage of the control group.
(§3) By using Graph Pad Prism 8.0 software, the concentration that inhibits 50% of maximum cell proliferation was determined to be IC50 value.

[2] = system: human normal hepatocyte L-O2; assay: CCK-8 cytotoxicity against normal hepatocyte L-O2 cells; conditions: for IC50: human normal hepatocyte L-O2, CCK-8, 24 h
Method: We have selected compounds A7, A8, A9, and A14 with relatively low IC50 values, which are considered to have more potential and are more meaningful for further research. The toxic effects of compounds A7, A8, A9, and A14 on normal hepatocytes cells L-O2 were assessed in this work to examine the selective toxicity of the new compounds on cancer cells without harming normal cells. The selectivity index was calculated as a ratio of L-02 IC50/MCF-7 IC50 for these four compounds. […] Therefore, A8 and A14 were chosen as representative medications for future research after thorough evaluation.
as §1, §2, §3

MCF-7 cells [3] = assay: Migration ability assay (wound healing / scratch); conditions: various concentrations, 24 h and 48 h, vs control group
Method: An obvious feature of breast cancer cells is their strong migration ability. In order to study the inhibitory effect of compounds on breast cancer cells migration, the scratch distances of compounds A8 and A14 on MCF-7 cells at different concentrations were measured by wound healing experiments. […] Moreover, under similar concentrations, the inhibitory migration effect of the target compound on MCF-7 is more excellent than that of the control drug 5-Fu.
MCF-7 cells were seeded into six-well plates at a density of 3000 cells/well and growing for 24 h. Scratches were made in confluent monolayers with 200 μL pipette tip. After that, each well was washed with PBS buffer 3 times to remove non-adherent cell debris. MCF-7 cells were continually incubated with different concentrations of compounds or positive control for 24 or 48 h. The area of cells migrated across the wound was photographed using phase contrast microscopy at 0 h, 24 h, and 48 h. The migration distance of cells into the wound area was measured by ImageJ2 software at room temperature.

MCF-7 cells [4] = assay: Cell colony formation assay; conditions: 7 days treatment, drug concentrations greater than 8 µmol/L, vs blank control
Method: MCF-7 cells were seeded into six-well plates at a density of 1000 cells/well and cultivated for 24 h. After that, the cells were continually incubated with different concentrations of compounds and positive control for 7 days. Each well was carefully rinsed three times with PBS buffer quickly at room temperature. Collected cells were fixed for 1 h at room temperature by adding 2 mL of 4% paraformaldehyde solution. The results were analyzed using the ImageJ software.

Row | Structure (SMILES) | pIC50 (MCF-7 cells [1]; Homo sapiens, MCF7, CCK-8, 24 h treatment) | pIC50 (MCF-7 cells [1]; CCK-8, 24 h treatment) | IC50 [2] [µM] | Selectivity Index (SI) ([2]; ratio L-02 IC50/MCF-7 IC50) | Inhibition of MCF-7 cell migration (scratch distance) (MCF-7 cells [3]) | Colony formation of MCF-7 cells (MCF-7 cells [4])
1 | O=c1[nH]cc(F)c(=O)[nH]1 [Compound 5-Fu, 5-fluorouracil, reference compound] | 3.77 |  | 200 | 1.18 |  | 
2 | COc1cc(C(=O)/C=C/c2ccc(C(=O)NCC3CCOC3)cc2)cc(OC)c1OC (stereo not drawn) [Compound A8, (E)-4-(3-oxo-3-(3,4,5-trimethoxyphenyl)prop-1-en-1-yl)-N-((tetrahydrofuran-3-yl)methyl) benzamide] |  | 4.78 | 47.2 |  | inhibited MCF-7 cell migration; also recorded: effectively inhibited the migration of MCF-7 cells in a dose-dependent manner | 
3 | COc1cc(C(=O)/C=C/c2ccc(C(=O)OCCCSc3ccncc3)cc2)cc(OC)c1OC [Compound A14, 3-(pyridin-4-ylthio) propyl (E)-4-(3-oxo-3-(3,4,5-trimethoxyphenyl)prop-1-en-1-yl) benzoate] |  |  | 41.2 |  | inhibited MCF-7 cell migration; also recorded: effectively inhibited the migration of MCF-7 cells in a dose-dependent manner | significantly reduced

Second part, led by results:

Row | pIC50 (MCF-7 cells [1]; Homo sapiens, MCF7, CCK-8, 24 h treatment) | pIC50 (MCF-7 cells [1]; CCK-8, 24 h treatment) | Structure (SMILES) | IC50 [2] [µM] | Selectivity Index (SI) ([2]; ratio L-02 IC50/MCF-7 IC50) | Inhibition of MCF-7 cell migration (scratch distance) (MCF-7 cells [3]) | Colony formation of MCF-7 cells (MCF-7 cells [4])
4 |  | 4.72 | COc1cc(C(=O)/C=C/c2ccc(C(=O)NCc3cccs3)cc2)cc(OC)c1OC [Compound A7, (E)-4-(3-oxo-3-(3,4,5-trimethoxyphenyl)prop-1-en-1-yl)-N-(thiophen-2-ylmethyl) benzamide] |  |  |  | 
5 |  | 4.71 | COc1cc(C(=O)/C=C/c2ccc(C(=O)NCC3CC3)cc2)cc(OC)c1OC [Compound A9, (E)-N-(cyclopropylmethyl)-4-(3-oxo-3-(3,4,5-trimethoxyphenyl)prop-1-en-1-yl) benzamide] | 35.3 |  |  | 
